# Like-named read-outs stand apart in the source and are kept apart here.
# Assays:
# MM.1S xenograft = test: Subcutaneous MM.1S murine xenograft model; assay type: in vivo; conditions: SCID mice
# Procedure: CB17 SCID mice (48-54 days old) were purchased from Charles River Laboratories (Wilmington, Mass.). All animal studies were conducted according to protocols approved by the Animal Ethics Committee of the Dana-Farber Cancer Institute. After irradiation (200cGy), mice were subcutaneously injected with 5×10^6 MM.1S cells in the right flank. […] Tumor size was measured every three days, and tumor volume was calculated with the formula: V=0.5 (a×b^2), where “a” is the long diameter of the tumor and “b” is the short diameter of the tumor. Mice were sacrificed when the tumor reached 2 cm in length or 2 cm^3 volume, or if mice appeared moribund to prevent unnecessary morbidity. Survival was evaluated from the first day of the treatment until death. […] These SCID mice were subcutaneously injected with 5×10^6 MM.1S cells. […] Tumor volume was calculated from caliper measurements twice weekly, and data represent mean±SD (FIG. 9A).
# RPMI8226 cells [1] = test: Combination with bortezomib, MTT cytotoxicity, combination index; assay type: cell-based, human; conditions: for CI (combination index): RPMI8226, MTT, 24 h
# Procedure: The combined effect of drugs was analyzed by isobologram analysis using the Compusyn software program (ComboSyn, Inc.); a combination index (CI)<1 is indicative of a synergistic effect.
# All experiments were performed 3 times in quadruplicate. Data represent mean±SD (FIG. 7D).
# HDAC6 = target: T1, HDAC6 (Homo sapiens, UniProt Q9UBN7); test: Western blot for acetylated alpha-tubulin (HDAC6 inhibition in cells); assay type: cell-based; conditions: 10 or 20 um (FIG. 8A)
# T1 sequence (Q9UBN7 1-1215): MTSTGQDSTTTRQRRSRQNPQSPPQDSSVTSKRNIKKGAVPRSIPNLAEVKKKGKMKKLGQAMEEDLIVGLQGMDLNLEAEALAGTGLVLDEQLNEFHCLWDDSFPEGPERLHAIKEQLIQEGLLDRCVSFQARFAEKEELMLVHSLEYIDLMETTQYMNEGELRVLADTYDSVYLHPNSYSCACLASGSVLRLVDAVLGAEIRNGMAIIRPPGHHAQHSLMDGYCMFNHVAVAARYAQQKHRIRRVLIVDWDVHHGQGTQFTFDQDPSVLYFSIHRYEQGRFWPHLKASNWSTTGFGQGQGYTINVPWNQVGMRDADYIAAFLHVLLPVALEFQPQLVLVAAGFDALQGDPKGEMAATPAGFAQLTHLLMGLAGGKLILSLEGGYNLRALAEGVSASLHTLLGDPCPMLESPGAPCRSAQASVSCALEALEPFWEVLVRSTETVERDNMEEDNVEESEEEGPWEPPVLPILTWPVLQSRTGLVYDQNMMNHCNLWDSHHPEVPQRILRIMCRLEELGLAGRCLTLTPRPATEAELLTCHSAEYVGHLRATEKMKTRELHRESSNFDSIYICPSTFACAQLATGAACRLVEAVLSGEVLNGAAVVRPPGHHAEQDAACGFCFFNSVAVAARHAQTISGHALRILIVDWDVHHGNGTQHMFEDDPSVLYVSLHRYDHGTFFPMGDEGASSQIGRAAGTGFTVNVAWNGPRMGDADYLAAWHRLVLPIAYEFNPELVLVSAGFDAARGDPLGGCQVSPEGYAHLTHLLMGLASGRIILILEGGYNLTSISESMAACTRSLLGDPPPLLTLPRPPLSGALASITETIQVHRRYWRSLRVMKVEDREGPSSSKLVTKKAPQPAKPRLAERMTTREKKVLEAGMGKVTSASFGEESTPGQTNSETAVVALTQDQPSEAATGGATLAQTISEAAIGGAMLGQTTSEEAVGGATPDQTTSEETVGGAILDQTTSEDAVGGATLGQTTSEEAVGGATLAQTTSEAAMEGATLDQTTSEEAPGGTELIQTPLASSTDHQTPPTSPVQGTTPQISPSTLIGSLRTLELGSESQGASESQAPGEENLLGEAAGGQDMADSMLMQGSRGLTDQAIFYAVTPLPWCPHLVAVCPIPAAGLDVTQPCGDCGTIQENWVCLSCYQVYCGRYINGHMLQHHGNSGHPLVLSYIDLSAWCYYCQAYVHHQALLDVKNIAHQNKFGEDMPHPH
# [2] = test system: MM.1S cells co-cultured with BMSCs; test: 3[H]-thymidine incorporation, MM.1S co-cultured with BMSCs; assay type: cell-based, human; conditions: 7.5, 15, 30 μM, 48 hours (FIG. 6D)
# Procedure: To measure proliferation of MM cells, the rate of DNA synthesis was measured by ^3[H]-thymidine (Perkin-Elmer) uptake. […] Cell proliferation was measured by 3[H]-thymidine incorporation assay. Data represent mean±SD from quadruplicate cultures (FIG. 6D).
# RPMI8226 cells [3] = test: Combination with carfilzomib, MTT assay; assay type: cell-based, human; conditions: RPMI8226, Compound 10 5, 10, 20 um + carfilzomib 3, 5, 7.5 nM, 24 h (FIG. 10)
# Procedure: All experiments were performed 3 times in quadruplicate. Data represent mean+/−SD (FIG. 10). The y-axis (% control) indicates the relative number of viable cells after each treatment.
# HDAC2 = HDAC2 (Homo sapiens, UniProt Q92769); test: HDAC2 inhibitory activity (IC50); assay type: biochemical
# Procedure: (§1) HDAC inhibitor compounds designed and synthesized in accordance with the present invention were tested for their inhibitor activity against several different HDAC isoforms.
# MM cell lines = test: Cell growth inhibition assay (MTT) in MM cell lines; assay type: cell-based, human; conditions: MM.1S, RPMI8226, U266, OPM1, H929; 1.875-30 μM, 48 h and 72 h, MTT (FIG. 6A)
# Procedure: To measure proliferation of MM cells, the rate of DNA synthesis was measured by ^3[H]-thymidine (Perkin-Elmer) uptake.
# The growth inhibitory effect of Merck60 (HDACL, 2 inhibitor previously reported as compound #60 by Method et al. Bioorg. Med. Chem. Lett. 2008. 18(3):973-8) versus MS275 (HDAC1, 2, 3 inhibitor) was examined in MM cell lines using MTT assay. MM cells were cultured with Merck60 (left panel) or MS275 (right panel) for 48 hours. Cell growth was assessed by MTT assay. All experiments were performed 3 times in quadruplicate. Data represent mean±SD.
# Cell growth was assessed by MTT assay. All experiments were performed 3 times in quadruplicate. Data represent mean±SD.
# HDAC1 = HDAC1 (Homo sapiens, UniProt Q13547); test: HDAC1 inhibitory activity (IC50); assay type: biochemical
# Procedure: as §1
# HDAC3 = HDAC3 (Homo sapiens, UniProt O15379); test: HDAC3 inhibitory activity (IC50); assay type: biochemical
# Procedure: as §1
# pERK1/2 (Thr202/204) = test: Immunoblot of ERK phosphorylation; assay type: cell-based, human; conditions: MM.1S, 10 and 20 μM, 10 hours, then IL-6 10 ng/mL 4 hours (FIG. 6G)
# [4] = test system: STAT3 acetylation in MM.1S cells; test: Immunoprecipitation/immunoblot of STAT3 acetylation; assay type: cell-based, human; conditions: 20 μM, 18 hours (FIG. 6H)
# Procedure: Whole-cell lysates were incubated with anti-STAT3, -JAK2, and -green fluorescent protein (GFP) Abs for 2 hours at 4° C., and then incubated with Protein A/G PLUS-Agarose® (Santa Cruz Biotechnology) overnight at 4° C. Anti-GFP Ab served as a control. Immune complexes were analyzed by immunoblotting with anti-STAT3, -JAK2, -acetylated-Lysine, and -phosphorylated-tyrosine Abs. […] Whole cell lysates were immunoprecipitated with anti-STAT3 Ab. Immunoprecipitates were then subjected to SDS-PAGE and immunoblotted with anti-Ac-K and -STAT3 Abs.
# Chain of HDAC3 (O15379 whole entry): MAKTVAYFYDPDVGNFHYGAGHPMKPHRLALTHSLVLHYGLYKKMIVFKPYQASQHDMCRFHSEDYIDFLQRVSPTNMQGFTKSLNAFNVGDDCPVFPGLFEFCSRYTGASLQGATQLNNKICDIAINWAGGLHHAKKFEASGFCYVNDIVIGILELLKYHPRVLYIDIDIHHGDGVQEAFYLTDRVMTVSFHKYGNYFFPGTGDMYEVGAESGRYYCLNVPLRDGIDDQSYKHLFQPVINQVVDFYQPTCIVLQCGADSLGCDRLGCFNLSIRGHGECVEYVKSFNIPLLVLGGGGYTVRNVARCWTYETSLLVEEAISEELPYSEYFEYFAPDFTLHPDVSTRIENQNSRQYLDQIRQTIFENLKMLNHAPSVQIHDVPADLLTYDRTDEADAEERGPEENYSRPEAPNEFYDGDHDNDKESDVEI
# Chain of HDAC3 (Q9Y618 395-489 partner limits assumed): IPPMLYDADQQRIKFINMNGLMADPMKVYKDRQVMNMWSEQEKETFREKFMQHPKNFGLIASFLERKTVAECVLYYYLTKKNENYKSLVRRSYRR
# Chain of HDAC1 (Q13547 whole entry): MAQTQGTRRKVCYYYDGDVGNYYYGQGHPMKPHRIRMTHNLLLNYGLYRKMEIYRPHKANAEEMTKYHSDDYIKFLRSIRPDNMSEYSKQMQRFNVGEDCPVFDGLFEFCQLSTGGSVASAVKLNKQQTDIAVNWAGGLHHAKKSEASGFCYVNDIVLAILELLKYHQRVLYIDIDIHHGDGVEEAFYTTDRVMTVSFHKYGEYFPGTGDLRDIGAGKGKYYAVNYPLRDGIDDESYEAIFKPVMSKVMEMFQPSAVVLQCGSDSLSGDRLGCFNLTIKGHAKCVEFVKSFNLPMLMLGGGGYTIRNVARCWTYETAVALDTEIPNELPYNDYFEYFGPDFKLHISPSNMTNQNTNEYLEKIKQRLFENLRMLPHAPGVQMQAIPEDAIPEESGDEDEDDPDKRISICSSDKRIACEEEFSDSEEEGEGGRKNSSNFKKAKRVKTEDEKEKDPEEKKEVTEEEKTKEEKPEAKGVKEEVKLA
# Chain of HDAC2 (Q92769 whole entry): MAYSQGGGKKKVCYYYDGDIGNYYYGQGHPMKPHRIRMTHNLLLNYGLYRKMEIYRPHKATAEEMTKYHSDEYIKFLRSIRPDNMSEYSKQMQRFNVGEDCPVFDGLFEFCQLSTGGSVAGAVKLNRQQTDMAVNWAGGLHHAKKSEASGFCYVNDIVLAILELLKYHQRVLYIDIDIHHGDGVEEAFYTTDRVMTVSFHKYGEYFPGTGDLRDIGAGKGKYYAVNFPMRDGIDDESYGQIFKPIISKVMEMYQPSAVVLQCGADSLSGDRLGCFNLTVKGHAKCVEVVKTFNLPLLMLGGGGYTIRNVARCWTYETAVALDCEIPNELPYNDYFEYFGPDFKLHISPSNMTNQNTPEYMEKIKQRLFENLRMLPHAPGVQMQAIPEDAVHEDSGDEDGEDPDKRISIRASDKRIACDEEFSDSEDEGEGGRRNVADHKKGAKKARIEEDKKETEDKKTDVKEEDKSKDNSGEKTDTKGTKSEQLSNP
smiles,measurement,setting,value
"Nc1ccccc1NC(=O)c1cnccn1 [Compound 10, N-(2-aminophenyl)pyrazine-2-carboxamide]",MM tumor growth (tumor volume),"MM.1S xenograft; 15 and 50 mg/kg IP 5 days a week for 3 weeks, versus control, day 22 p<0.05 (FIG. 9A)",significantly inhibited MM tumor growth
same,"tumor growth, combination with bortezomib","MM.1S xenograft; Compound 10 50 mg/kg + bortezomib 0.5 mg/kg sc twice a week, p<0.05",further enhanced either single agent activity
same,CI (combination index),RPMI8226 cells [1]; BG45 5 μM + bortezomib 2 nM,1.04
same,CI (combination index),RPMI8226 cells [1]; BG45 5 μM + bortezomib 3 nM,0.83
same,CI (combination index),RPMI8226 cells [1]; BG45 5 μM + bortezomib 4 nM,0.84
same,CI (combination index),RPMI8226 cells [1]; BG45 10 μM + bortezomib 2 nM,1.19
same,CI (combination index),RPMI8226 cells [1]; BG45 10 μM + bortezomib 3 nM,0.78
same,CI (combination index),RPMI8226 cells [1]; BG45 10 μM + bortezomib 4 nM,0.77
same,CI (combination index),RPMI8226 cells [1]; BG45 20 μM + bortezomib 2 nM,0.91
same,CI (combination index),RPMI8226 cells [1]; BG45 20 μM + bortezomib 3 nM,0.67
same,CI (combination index),RPMI8226 cells [1]; BG45 20 μM + bortezomib 4 nM,0.63
same,bortezomib-induced cytotoxicity,"RPMI8226 cells [1]; RPMI8226, bortezomib 2-4 nM + 5, 10, 20 μM Compound 10, 24 h (FIG. 7D)",synergistically enhanced bortezomib-induced cytotoxicity
same,inhibition of HDAC6 by acetylated alpha-tubulin Western blot,HDAC6,did not inhibit HDAC6
same,MM cell proliferation in the presence of BMSCs,[2],markedly inhibited MM cell growth even in the presence of BMSCs
same,cytotoxicity induced by carfilzomib,RPMI8226 cells [3],enhanced the cytotoxicity of carfilzomib
same,IC50,"HDAC2; Table 2, read-out: HDAC2",1.49 µM
same,IC50,"HDAC2; Table 3, read-out: IC50 against the deacetylase activity of HDAC2",2.2 µM
same,MM cell growth,MM cell lines,significantly inhibited MM cell growth in a dose-dependent fashion
same,IC50,"HDAC1; Table 2, read-out: HDAC1",0.922 µM
same,IC50,"HDAC1; Table 3, read-out: IC50 against the deacetylase activity of HDAC1",2 µM
same,IC50,"HDAC3; Example 8, read-out: HDAC3 IC50",0.289 µM
same,IC50,"HDAC3; Table 2, read-out: HDAC3",0.14 µM
same,p-ERK1/2,pERK1/2 (Thr202/204),without affecting p-ERK1/2
same,acetylation of STAT3,[4],increased acetylation of STAT3

# From patent US9988343B2, “Inhibitors of histone deacetylase” (Dana-Farber Cancer Institute, Inc., priority 2013, dated 2018)
